Source: patent publication US10774071B2, “PD-1/PD-L1 inhibitors” (Gilead Sciences, Inc., priority 2018, dated 2020)
Read-outs that look alike come from different tables or passages of the source.

Key:
[1] = molecular target: PD-L1 (Homo sapiens (Human), UniProt Q9NZQ7); test: PD-L1/PD-L1 dimerization biochemical protein-protein interaction assay (ALPHA); assay type: binding; conditions: read-out: AC50 PDL1 Dimer 1 nM
[2] = molecular target: PD-1/PD-L1 (Homo sapiens (Human), UniProt Q9NZQ7); test: PD-1/PD-L1 biochemical protein-protein interaction assay (ALPHA); assay type: binding; conditions: read-out: IC50 PD-L1-PD1
PD-1/PD-L1, sequence (Q9NZQ7 19-238): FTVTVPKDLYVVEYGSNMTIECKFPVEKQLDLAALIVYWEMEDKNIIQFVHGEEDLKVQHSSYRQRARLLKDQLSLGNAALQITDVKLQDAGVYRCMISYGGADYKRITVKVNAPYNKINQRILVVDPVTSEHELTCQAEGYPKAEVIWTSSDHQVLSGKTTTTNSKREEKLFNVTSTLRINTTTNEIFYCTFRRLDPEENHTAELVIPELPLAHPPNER
Description: Compounds were tested in biochemical protein-protein interaction assays to determine if they can specifically block the interaction between the extracellular domains of PD-1/PD-L1 or CTLA/CD80. Binding of the protein pairs is measured using a bead based Amplified Luminescent Proximity Homogeneous Assay (ALPHA) platform. […] Final protein concentration in the assays were 0.3 nM (His tagged PD-L1), 2.5 nM (biotinylated Fc-PD-1), 1 nM (His tagged CTLA4) and 1 nM (biotinylated CD80).

[3] = 0.5 nM His tagged PD-L1 and 0.5 nM FLAG tagged PD-L1, Table 4B
[4] = 0.3 nM His tagged PD-L1, 2.5 nM biotinylated Fc-PD-1, Table 3B
[5] = 0.5 nM His tagged PD-L1 and 0.5 nM FLAG tagged PD-L1, Table 4A
[6] = 0.3 nM His tagged PD-L1, 2.5 nM biotinylated Fc-PD-1, readings of 0.064 nM are equal to or less than 0.064 nM

PD-L1, sequence (Q9NZQ7 19-238): as above
PD-L1, sequence (Q9NZQ7 19-238): as above

AC50 [1, 3]	IC50 [2, 4]	AC50 [1, 5]	IC50 [2, 6]	Compound
81.7 nM	0.064 nM			COc1nc(-c2cccc(-c3cccc4c3CC[C@@H]4Oc3nc(OC)c(CN4CC[C@@H](C(=O)O)C4)cc3Cl)c2C#N)ccc1CNC[C@@H]1CCC(=O)N1 [B-73]
		42.1 nM	≤ 0.064 nM	COc1cc(N[C@H]2CCc3c(-c4cccc(-c5ccc(CNC[C@@H]6CCC(=O)N6)c(OC)n5)c4Cl)cccc32)c(Cl)cc1CN1CC[C@@H](C(=O)O)C1 [A-16]
57.9 nM	0.064 nM			COc1nc(-c2cccc(-c3cccc4c3CC[C@@H]4Oc3nc(OC)c(CN4CC[C@@H](C(=O)O)C4)cc3Cl)c2C)ccc1CNC[C@@H]1CCC(=O)N1 [B-78]
9.94 nM	0.064 nM			COc1nc(-c2cccc(-c3cccc4c3CC[C@@H]4Oc3nc(OC)c(CN(C)CC(=O)O)cc3Cl)c2Cl)ccc1CNC[C@@H]1CCC(=O)N1 [B-173]
7.97 nM	0.064 nM			COc1nc(-c2cccc(-c3cccc4c3CC[C@@H]4Oc3nc(OC)c(CN4CC5CCC4C5C(=O)O)cc3Cl)c2Cl)ccc1CNC[C@@H]1CCC(=O)N1 (stereo partly drawn) [B-174]
31.2 nM	0.064 nM			CNc1nc(-c2cccc(-c3cccc4c3CC[C@@H]4Oc3nc(OC)c(CN4CC[C@@H](C(=O)O)C4)cc3Cl)c2Cl)cnc1CN1CC(C)(O)C1 [B-21]
52.6 nM	0.064 nM			COc1nc(-c2cccc(-c3cccc4c3CC[C@@H]4Oc3nc(OC)c(CN4CCCCC(C(=O)O)C4)cc3Cl)c2Cl)ccc1CNC[C@@H]1CCC(=O)N1 (stereo partly drawn) [B-176]
118 nM	0.064 nM			COc1nc(O[C@H]2CCc3c(-c4cccc(-c5cnc(CNC[C@@H]6CCC(=O)N6)c(OC)n5)c4C)cccc32)c(Cl)cc1CN1CC[C@@H](C(=O)O)C1 [B-81]
90.7 nM	0.064 nM			CNC(=O)C1CCN(Cc2ccc(-c3cccc(-c4cccc5c4CC[C@@H]5Oc4nc(OC)c(CN5CCC(C(=O)NC)C5)cc4Cl)c3Cl)nc2OC)C1 (stereo partly drawn) [B-87]
33.7 nM	0.064 nM			COc1nc(-c2cccc(-c3cccc4c3CC[C@@H]4Oc3nc(OC)c(CNC45CC(C(=O)O)(C4)C5)cc3Cl)c2Cl)ccc1CNC[C@@H]1CCC(=O)N1 [B-20]
12.7 nM	0.064 nM			COc1nc(-c2cccc(-c3cccc4c3CC[C@@H]4Oc3nc(OC)c(CN4CC(C(=O)O)C4)nc3Cl)c2Cl)ccc1CNC[C@@H]1CCC(=O)N1 [B-152]
3.92 nM	0.064 nM			COc1nc(-c2cccc(-c3cccc4c3CC[C@@H]4Oc3nc(OC)c(CN4CCC[C@@]4(C)C(=O)O)cc3C(F)(F)F)c2Cl)ccc1CNC[C@@H]1CCC(=O)N1 [B-13]
0.518 nM	0.064 nM			COc1nc(-c2cccc(-c3cccc4c3CC[C@@H]4Oc3nc(OC)c(CN4CCC5CC4(C(=O)O)C5)cc3C(F)(F)F)c2Cl)ccc1CNC[C@@H]1CCC(=O)N1 [B-233]
1420 nM	0.195 nM			COC(=O)[C@@H]1CCN(Cc2ncc(O[C@H]3CCc4c(-c5cccc(-c6ccc(CNC[C@@H]7CCC(=O)N7)c(OC)n6)c5Cl)cccc43)nc2OC)C1 [B-157]
26.3 nM	0.064 nM			COc1nc(-c2cccc(-c3cccc4c3CC[C@@H]4Oc3nc(OC)c(CN4CCC(C(=O)O)CC4)cc3Cl)c2Cl)ccc1CNC[C@@H]1CCC(=O)N1 [B-115]
18 nM	0.064 nM			COc1nc(-c2cccc(-c3cccc4c3CC[C@@H]4Oc3nc(OC)c(CN4CC(C)(O)C4)cc3C(F)(F)F)c2Cl)ccc1CNC[C@@H]1CCC(=O)N1 [B-260]
99.1 nM	0.064 nM			COc1nc(O[C@H]2CCc3c(-c4cccc(-c5cc(C)c(CN6CC[C@@H](C(=O)O)C6)c(OC)n5)c4Cl)cccc32)c(Cl)cc1CNC[C@@H]1CCC(=O)N1 [B-133]

Further lines, the compound ahead of its results:

Compound	AC50 [1, 3]	IC50 [2, 4]	AC50 [1, 5]	IC50 [2, 6]
COc1nc(-c2cccc(-c3cccc4c3CC[C@@H]4Oc3nc(OC)c(CNC(C)(C)C(=O)O)cc3C(F)(F)F)c2Cl)ccc1CN[C@H]1C[C@](C)(O)C1 [B-1]	1.11 nM	0.064 nM		
COc1cc(O[C@H]2CCc3c(-c4cccc(-c5ccc(CNC[C@@H]6CCC(=O)N6)c(OC)n5)c4Cl)cccc32)c(C(F)(F)F)cc1CN1CC[C@@](C)(C(=O)O)C1 [B-218]	17.3 nM	0.064 nM		
COc1cc(-c2cccc(-c3cccc4c3CC[C@@H]4Oc3nc(OC)c(CNC(C)(C)CC(=O)O)cc3C(F)(F)F)c2Cl)cc(F)c1CNC[C@@H]1CCC(=O)N1 [B-192]	6.8 nM	0.064 nM		
CC[C@H](NCc1nc(C(F)(F)F)c(N[C@H]2CCc3c(-c4cccc(-c5ccc(CNC[C@@H]6CCC(=O)N6)c(OC)n5)c4Cl)cccc32)nc1OC)C(=O)O [A-104]			16.6 nM	≤ 0.064 nM
COc1cc(O[C@H]2CCc3c(-c4cccc(-c5ccc(CNC[C@@H]6CCC(=O)N6)c(OC)n5)c4Cl)cccc32)c(C(F)(F)F)cc1CNC[C@@H](O)CC(=O)O [B-222]	13.5 nM	0.064 nM		
COc1nc(-c2cccc(-c3cccc4c3CC[C@@H]4Nc3nc(OC)c(CN)nc3C(F)(F)F)c2Cl)ccc1CNC[C@@H]1CCC(=O)N1 [A-17]			13.9 nM	0.077 nM
COc1nc(O[C@H]2CCc3c(-c4cccc(-c5cc(F)c(CNC[C@@H]6CCC(=O)N6)c(OC)n5)c4Cl)cccc32)c(C(F)(F)F)cc1CN1CC2(C(=O)O)CCC1CC2 [B-190]	8.98 nM	0.064 nM		
COc1nc(-c2cccc(-c3cccc4c3CC[C@@H]4Nc3nc(OC)c(CN[C@H](C(=O)O)C4CC4)nc3C(F)(F)F)c2Cl)ccc1CNC[C@@H]1CCC(=O)N1 [A-101]			3.9 nM	≤ 0.064 nM
COc1nc(O[C@H]2CCc3c(-c4cccc(-c5cc(C)c(CN6CC(C)(O)C6)c(OC)n5)c4Cl)cccc32)c(Cl)cc1CN1CC2(C(=O)O)CCC1CC2 [B-57]	66.5 nM	0.08 nM		
COc1cc(-c2cccc(-c3cccc4c3CC[C@@H]4Oc3nc(OC)c(CN4CC[C@@H]5C[C@@]54C(=O)O)cc3C(F)(F)F)c2Cl)ccc1CNC[C@@H]1CCC(=O)N1 [B-117]	0.813 nM	0.064 nM		
COc1cc(N[C@H]2CCc3c(-c4cccc(-c5ccc(CNC[C@@H]6CCC(=O)N6)c(OC)n5)c4Cl)cccc32)c(Cl)cc1CN1CC[C@@](C)(C(=O)O)C1 [A-14, (R)-1-(5-chloro-4-(((S)-4-(2-chloro-3-(6-methoxy-5-(((((S)-5-oxopyrrolidin-2-yl)methyl)amino)methyl)pyridin-2-yl)phenyl)-2,3-dihydro-1H-inden-1-yl)amino)-2-methoxybenzyl)-3-methylpyrrolidine-3-carboxylic acid]			30.4 nM	≤ 0.064 nM
COc1nc(-c2cccc(-c3cccc4c3CC[C@@H]4Nc3nc(OC)c(CNCC(=O)O)nc3C(F)(F)F)c2Cl)ccc1CN1CC(O)C1 [A-73]			15.7 nM	≤ 0.064 nM
COc1nc(-c2cccc(-c3cccc4c3CC[C@@H]4Nc3nc(OC)c(CN[C@@H](C)C(=O)O)cc3C(F)(F)F)c2Cl)ccc1CNC[C@H]1C[C@](C)(O)C1 [A-83]			23.6 nM	≤ 0.064 nM
COc1nc(-c2cccc(-c3cccc4c3CC[C@@H]4Nc3nc(OC)c(CNCC(=O)O)nc3C(F)(F)F)c2Cl)ccc1CNC[C@H]1C[C@H](O)C1 [A-49]			10.7 nM	≤ 0.064 nM
COc1cc(O[C@H]2CCc3c(-c4cccc(-c5ccc(CNC[C@@H]6CCC(=O)N6)c(OC)n5)c4Cl)cccc32)c(C(F)(F)F)cc1CN1CCC[C@@]1(C)C(=O)O [B-223]	18 nM	0.064 nM		
COc1nc(-c2cccc(-c3cccc4c3CC[C@@H]4Nc3nc(OC)c(CNCC(=O)O)cc3C(F)(F)F)c2Cl)ccc1CN[C@H]1C[C@](C)(O)C1 [A-67]			32.9 nM	≤ 0.064 nM
COc1nc(O[C@H]2CCc3c(-c4cccc(-c5ccc(CNC[C@@H]6CCC(=O)N6)c(OCC#N)n5)c4Cl)cccc32)c(C(F)(F)F)cc1CN1CC2(C(=O)O)CCC1CC2 [B-126]	3.35 nM	0.064 nM		
COc1nc(-c2cccc(-c3cccc4c3CC[C@@H]4Oc3nc4c(nc3Cl)c(CNC[C@@H]3CCC(=O)N3)nn4C)c2Cl)ccc1CNC[C@@H]1CCC(=O)N1 [B-147]	178 nM	0.351 nM		
CNC(=O)[C@H](C)NCc1cc(C(F)(F)F)c(O[C@H]2CCc3c(-c4cccc(-c5ccc(CNC[C@@H]6CCC(=O)N6)c(OC)n5)c4Cl)cccc32)nc1OC [B-249]	35.5 nM	0.065 nM		
COc1cc(N[C@H]2CCc3c(-c4cccc(-c5ccc(CNC[C@@H]6CCC(=O)N6)c(OC)n5)c4Cl)cccc32)c(C(F)(F)F)nc1CN1CC[C@@](C)(C(=O)O)C1 [A-42]			12.6 nM	≤ 0.064 nM
COc1cc(-c2cccc(-c3cccc4c3CC[C@@H]4Nc3nc(OC)c(CNCC(=O)O)nc3C(F)(F)F)c2Cl)ccc1CNC1CC(O)(CF)C1 (stereo partly drawn) [A-108]			6.64 nM	≤ 0.064 nM
COc1nc(-c2cccc(-c3cccc4c3CC[C@@H]4Oc3nc(OC)c(C(C)N4CC(C(=O)O)C4)cc3C(F)(F)F)c2Cl)ccc1CNC[C@@H]1CCC(=O)N1 (stereo partly drawn) [B-119]	24.5 nM	0.064 nM		
COc1nc(-c2cccc(-c3cccc4c3CC[C@@H]4Nc3nc(OC)c(CNCCC(=O)O)cc3C(F)(F)F)c2Cl)ccc1CN[C@H]1C[C@](C)(O)C1 [A-89]			81.8 nM	0.072 nM
COc1nc(-c2cccc(-c3cccc4c3CC[C@@H]4Oc3nc(OC)c(CN[C@@H](C)C(=O)O)cc3C(F)(F)F)c2Cl)ccc1CN[C@H]1C[C@](C)(O)C1 [B-215]	8.42 nM	0.064 nM		
COc1nc(-c2cccc(-c3cccc4c3CC[C@@H]4Nc3nc(OC)c(CN[C@@H](C)C(=O)O)cc3C(F)(F)F)c2Cl)ccc1CN1CC(C)(O)C1 [A-63]			34.4 nM	≤ 0.064 nM
